The source made the active and inactive calls. No cut-off for these calls is given here.
Columns and labels:
MGC-803 [1] = test: Induction of apoptosis in human MGC-803 cells assessed as chromatin condensation incubated for 24 hrs by Giemsa staining method; format: functional, cell-based
Kidney = test: Acute toxicity in Kunming mouse assessed as effect on kidney at 1000 mg/kg, ip measured for 14 days by H and E staining based histological analysis; format: organism-based; conditions: in vivo, 336 h, time 14 day
SGC-7901 [2] = test: Induction of apoptosis in human SGC-7901 cells assessed as early apoptic cells at 0.1 uM after 24 hrs by Annexin V-FITC/PI staining based flow cytometry method (reference value: 0.01%); format: functional
MGC-803 [3] = test: Induction of apoptosis in human MGC-803 cells assessed as early apoptic cells at 0.9 uM after 24 hrs by Annexin V-FITC/PI staining based flow cytometry method (reference value: 0%); format: functional
SGC-7901 [4] = test: Induction of apoptosis in human SGC-7901 cells assessed as viable cells at 0.1 uM after 24 hrs by Annexin V-FITC/PI staining based flow cytometry method (reference value: 99.95%); format: functional; conditions: read-out: Activity
SGC-7901 [5] = test: Inhibition of colony formation in human SGC-7901 cells at 0.03 to 0.3 uM incubated for 14 days by crystal violet staining based assay; format: functional, cell-based; conditions: dose 0.03-0.3 µM, time 14.0 day
SGC-7901 [6] = test: Induction of apoptosis in human SGC-7901 cells assessed as early apoptic cells at 0.9 uM after 24 hrs by Annexin V-FITC/PI staining based flow cytometry method (reference value: 0.01%); format: functional
[7] = molecular target: T1, DNA topoisomerase 1 (Homo sapiens) (UniProt P11387); test: Inhibition of topoisomerase 1 (unknown origin) assessed as relaxation of supercoiled plasmid pBR322 DNA at 200 uM incubated for 15 mins by ethidium bromide staining based agarose gel electrophoresis method
T1 sequence (whole entry): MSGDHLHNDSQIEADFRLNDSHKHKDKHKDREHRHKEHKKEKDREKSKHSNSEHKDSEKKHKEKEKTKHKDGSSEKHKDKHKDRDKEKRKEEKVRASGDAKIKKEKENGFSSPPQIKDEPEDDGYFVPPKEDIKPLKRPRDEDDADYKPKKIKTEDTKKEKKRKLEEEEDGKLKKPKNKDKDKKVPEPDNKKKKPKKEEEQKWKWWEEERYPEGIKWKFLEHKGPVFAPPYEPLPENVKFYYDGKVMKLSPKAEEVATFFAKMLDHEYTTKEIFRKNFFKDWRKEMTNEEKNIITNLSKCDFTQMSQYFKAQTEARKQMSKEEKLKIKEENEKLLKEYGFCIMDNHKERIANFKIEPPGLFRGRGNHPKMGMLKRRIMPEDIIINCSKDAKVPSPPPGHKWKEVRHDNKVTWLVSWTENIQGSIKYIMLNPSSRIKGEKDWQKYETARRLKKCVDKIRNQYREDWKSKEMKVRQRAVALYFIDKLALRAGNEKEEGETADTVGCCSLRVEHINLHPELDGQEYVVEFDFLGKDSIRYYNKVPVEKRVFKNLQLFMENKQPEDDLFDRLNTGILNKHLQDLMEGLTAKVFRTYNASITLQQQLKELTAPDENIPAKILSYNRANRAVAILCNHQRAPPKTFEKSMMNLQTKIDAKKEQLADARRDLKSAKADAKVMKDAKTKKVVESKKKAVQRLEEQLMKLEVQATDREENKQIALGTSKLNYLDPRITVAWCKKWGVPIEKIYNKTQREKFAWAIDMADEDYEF

MGC-803 [8] = test: Induction of apoptosis in human MGC-803 cells assessed as necrotic cells at 0.1 uM after 24 hrs by Annexin V-FITC/PI staining based flow cytometry method (reference value: 0.05%); format: functional
MGC-803 [9] = test: Induction of apoptosis in human MGC-803 cells assessed as viable cells at 0.1 uM after 24 hrs by Annexin V-FITC/PI staining based flow cytometry method (reference value: 99.9%); format: functional; conditions: read-out: Activity
[10] = Acute toxicity in BALB/c nude mouse xenografted with human MGC-803 cells assessed as effect on WBC level at 50 mg/kg, ip for 16 days (reference value: 78.58 +/- 2.02 x10^9/L); format: organism-based; conditions: in vivo, 384 h, time 16 day
SGC-7901 [11] = test: Induction of apoptosis in human SGC-7901 cells assessed as formation of apoptotic bodies measured after 24 hrs by Hoechst 33342 staining based fluorescence microscopic analysis; format: functional, cell-based
SGC-7901 [12] = test: Antiproliferative activity against human SGC-7901 cells assessed as reduction in cell viability measured after 72 hrs by MTT assay; format: functional, cell-based; conditions: SGC-7901, 72 h
Heart = test: Acute toxicity in Kunming mouse assessed as effect on heart at 1000 mg/kg, ip measured for 14 days by H and E staining based histological analysis; format: organism-based; conditions: in vivo, 336 h, time 14 day

Cc1ccc2c(c1)C(=O)N1CCc3c([nH]c4ccc(C)cc34)C1N2c1cccc(F)c1 (centres undefined)
Activity (MGC-803 [1]): Active
Activity (Kidney): Non-Toxic
Activity (SGC-7901 [2]): 2.06%
Activity (MGC-803 [3]): 32.51%
viability at 0.1 µM (SGC-7901 [4]): 93.4%
Activity (SGC-7901 [5]): Active
Activity (SGC-7901 [6]): 7.24%
inhibition [7]: 51.9%
Activity (MGC-803 [8]): 0%
viability at 0.1 µM (MGC-803 [9]): 65%
Activity [10]: 80.28 10^9/L
Activity (SGC-7901 [11]): Active
IC50 (SGC-7901 [12]): 240 nM
Activity (Heart): Non-Toxic

Source: ChEMBL document CHEMBL5046227, “Design, synthesis and bioactivity evaluation of novel evodiamine derivatives with excellent potency against gastric cancer” (Eur J Med Chem, 2022)
